Reference: paper PMC11469372, “Plasmodium SEY1 is a novel druggable target that contributes to imidazolopiperazine mechanism of action” (Research Square, 2024)

Key:
[1] = biological target: T1, PvSEY1 (Plasmodium vivax SEY1) (Plasmodium vivax, UniProt A5K168); test: GTPase assay (EnzChek free phosphate) at […] GNF179; also destabilized in lysate thermal shift assay; type: biochemical
T1 construct: Full-length PvSEY1-myc-His from E. coli, Ni-NTA eluate
T1 sequence (A5K168 1-889): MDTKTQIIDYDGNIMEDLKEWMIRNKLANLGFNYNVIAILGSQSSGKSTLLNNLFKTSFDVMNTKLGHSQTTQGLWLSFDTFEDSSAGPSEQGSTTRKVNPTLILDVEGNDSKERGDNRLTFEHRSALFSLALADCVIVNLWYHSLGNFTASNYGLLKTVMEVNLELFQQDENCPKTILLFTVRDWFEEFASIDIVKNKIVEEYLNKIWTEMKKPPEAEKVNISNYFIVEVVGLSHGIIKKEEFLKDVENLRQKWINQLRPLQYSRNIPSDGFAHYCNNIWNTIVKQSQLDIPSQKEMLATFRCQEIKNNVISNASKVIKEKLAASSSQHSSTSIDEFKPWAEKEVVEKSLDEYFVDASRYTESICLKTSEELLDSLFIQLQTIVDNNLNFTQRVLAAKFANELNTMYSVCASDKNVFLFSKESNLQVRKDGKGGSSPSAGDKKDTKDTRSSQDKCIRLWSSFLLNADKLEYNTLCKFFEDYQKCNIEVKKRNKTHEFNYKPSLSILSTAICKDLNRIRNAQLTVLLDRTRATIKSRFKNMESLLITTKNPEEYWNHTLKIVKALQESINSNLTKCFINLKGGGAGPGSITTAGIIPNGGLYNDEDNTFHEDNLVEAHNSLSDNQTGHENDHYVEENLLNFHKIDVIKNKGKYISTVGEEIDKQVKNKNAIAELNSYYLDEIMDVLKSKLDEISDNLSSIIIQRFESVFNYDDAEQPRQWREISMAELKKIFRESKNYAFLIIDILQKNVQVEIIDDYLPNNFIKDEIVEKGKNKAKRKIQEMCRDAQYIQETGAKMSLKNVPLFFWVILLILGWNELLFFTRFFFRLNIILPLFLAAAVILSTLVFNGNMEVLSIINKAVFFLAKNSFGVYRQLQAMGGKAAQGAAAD

HsFLOT2 = biological target: T2, HsFLOT2 (Homo sapiens, UniProt Q14254); test: proteomic affinity chromatography with GNF179 beads, competition with free GNF179 (TMT MS/MS), lysate; type: biochemical
T2 construct: gene FLOT2
T2 sequence (Q14254 2-428): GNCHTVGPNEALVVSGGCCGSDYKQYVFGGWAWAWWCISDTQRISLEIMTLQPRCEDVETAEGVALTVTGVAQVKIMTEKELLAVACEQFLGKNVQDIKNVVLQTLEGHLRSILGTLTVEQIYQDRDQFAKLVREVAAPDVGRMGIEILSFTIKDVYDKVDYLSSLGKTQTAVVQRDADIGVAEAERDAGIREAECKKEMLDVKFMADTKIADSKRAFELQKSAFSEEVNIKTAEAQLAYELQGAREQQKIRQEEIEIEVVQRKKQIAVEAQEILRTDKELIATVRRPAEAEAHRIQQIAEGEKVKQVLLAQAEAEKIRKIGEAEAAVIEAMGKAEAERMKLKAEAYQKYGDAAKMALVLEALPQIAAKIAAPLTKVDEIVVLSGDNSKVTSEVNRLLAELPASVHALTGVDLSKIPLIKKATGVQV

[2] = biological target: T3, PkSEY1 (Plasmodium knowlesi SEY1) (Plasmodium knowlesi, UniProt B3LAJ9); test: surface plasmon resonance (Biacore […], NTA chip); type: binding
T3 construct: Full-length, His-tagged (recombinant)
T3 sequence (B3LAJ9 whole entry): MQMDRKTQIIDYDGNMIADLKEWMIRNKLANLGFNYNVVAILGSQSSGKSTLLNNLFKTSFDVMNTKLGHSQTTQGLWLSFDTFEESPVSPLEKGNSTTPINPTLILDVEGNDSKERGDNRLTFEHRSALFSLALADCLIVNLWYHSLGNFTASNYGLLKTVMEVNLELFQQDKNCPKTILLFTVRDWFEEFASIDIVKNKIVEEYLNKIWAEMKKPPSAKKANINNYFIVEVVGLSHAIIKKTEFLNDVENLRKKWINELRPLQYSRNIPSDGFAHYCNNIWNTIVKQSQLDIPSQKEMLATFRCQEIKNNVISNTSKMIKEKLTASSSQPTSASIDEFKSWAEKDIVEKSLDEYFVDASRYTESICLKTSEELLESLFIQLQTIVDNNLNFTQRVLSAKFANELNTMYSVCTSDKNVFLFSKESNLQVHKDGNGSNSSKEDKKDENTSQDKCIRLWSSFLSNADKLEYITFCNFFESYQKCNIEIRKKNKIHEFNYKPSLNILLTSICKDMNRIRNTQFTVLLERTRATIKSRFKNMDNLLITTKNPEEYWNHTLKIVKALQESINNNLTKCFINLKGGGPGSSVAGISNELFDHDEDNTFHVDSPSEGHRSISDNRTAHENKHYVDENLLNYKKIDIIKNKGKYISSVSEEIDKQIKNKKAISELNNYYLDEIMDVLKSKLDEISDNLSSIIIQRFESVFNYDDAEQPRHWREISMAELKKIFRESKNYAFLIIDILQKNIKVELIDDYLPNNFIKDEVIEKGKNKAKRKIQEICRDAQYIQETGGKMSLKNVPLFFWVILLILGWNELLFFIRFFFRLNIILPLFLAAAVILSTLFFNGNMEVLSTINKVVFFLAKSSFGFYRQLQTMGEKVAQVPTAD

HsFLOT1 = biological target: T4, HsFLOT1 (Homo sapiens, UniProt O75955); test: proteomic affinity chromatography with GNF179 beads, competition with free GNF179 (TMT MS/MS), lysate; type: biochemical
T4 construct: gene FLOT1
T4 sequence (O75955 1-427): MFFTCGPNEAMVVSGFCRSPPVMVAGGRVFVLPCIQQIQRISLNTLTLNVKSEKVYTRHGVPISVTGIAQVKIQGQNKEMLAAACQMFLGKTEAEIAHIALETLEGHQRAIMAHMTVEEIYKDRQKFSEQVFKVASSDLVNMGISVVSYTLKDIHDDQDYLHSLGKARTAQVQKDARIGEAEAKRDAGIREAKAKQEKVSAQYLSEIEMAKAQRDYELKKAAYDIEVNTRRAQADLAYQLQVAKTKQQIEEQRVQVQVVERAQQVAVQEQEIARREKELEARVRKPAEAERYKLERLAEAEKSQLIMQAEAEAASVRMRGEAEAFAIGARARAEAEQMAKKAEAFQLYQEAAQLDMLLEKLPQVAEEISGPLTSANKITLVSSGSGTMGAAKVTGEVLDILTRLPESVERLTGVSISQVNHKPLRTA

PfSTOML = biological target: T5, PfSTOML (Plasmodium falciparum, UniProt O77376); test: proteomic affinity chromatography with GNF179 beads, competition with free GNF179 (TMT MS/MS), parasite lysate; type: biochemical
T5 construct: gene PF3D7_0318100
T5 sequence (O77376 entry or part of it): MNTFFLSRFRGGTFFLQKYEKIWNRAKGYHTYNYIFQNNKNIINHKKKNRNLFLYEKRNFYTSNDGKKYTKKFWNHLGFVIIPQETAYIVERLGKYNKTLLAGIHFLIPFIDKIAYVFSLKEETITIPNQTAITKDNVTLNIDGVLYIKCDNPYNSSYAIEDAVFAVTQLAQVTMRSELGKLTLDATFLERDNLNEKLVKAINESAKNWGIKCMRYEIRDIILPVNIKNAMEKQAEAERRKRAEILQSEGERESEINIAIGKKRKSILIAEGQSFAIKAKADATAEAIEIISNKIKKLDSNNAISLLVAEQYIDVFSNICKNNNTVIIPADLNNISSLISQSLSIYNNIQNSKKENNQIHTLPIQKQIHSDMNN

**Q.** Which results are given for CC1(C)c2nc(-c3ccc(F)cc3)c(Nc3ccc(Cl)cc3)n2CCN1C(=O)CN [GNF179]?
**A.** GTPase assay (EnzChek free phosphate) at 125 μM GNF179; also destabilized in lys [1]: These results indicate a reduction of PvSEY1 GTPase activity by GNF179.; Kd (HsFLOT2): 0.39 µM; Kd [2]: 144 µM; Kd (HsFLOT1): 0.34 µM; Kd (PfSTOML): 3.17 µM
